According to PubChem BioAssay AID1963867 (Molecular Pharmacology Branch, DTP, NCI, 2024):
Active and inactive are the calls of the source. How the source made its calls: active means viability on the fitted dose curve at most 10% of control; inactive means the rest.

Test system: KRAS-mutant PDC tumor spheroid with HUVEC/MSC, viability
Test: Anticancer human tumor 327498-153-R-J2-PDC patient-derived uterine carcinosarcoma cell line growth inhibition [KRAS2]
Conditions: for IC50: curve of first compound; for viability, T/C: stronger effect = lower value
In short: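 KRAS-mutant tumor cells were grown as spheroids with HUVEC endothelial cells and human MSCs as stroma. Targeted agents were tested alone and with KRAS pathway inhibitors. Doses started at or near clinical Cmax, or 10 microM, descending half-log.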

[1] = second compound 0.1 µM, first compound 0.0316 µM
[2] = second compound 0.1 µM, first compound 0.1 µM
[3] = second compound 0.1 µM, first compound 0.316 µM
[4] = second compound 0.1 µM, first compound 1 µM
[5] = second compound 0.1 µM, first compound 3.16 µM
[6] = second compound 0.1 µM, first compound 10 µM
[7] = second compound 0.316 µM, first compound 0.0316 µM
[8] = second compound 0.316 µM, first compound 0.1 µM
[9] = second compound 0.316 µM, first compound 0.316 µM
[10] = second compound 0.316 µM, first compound 1 µM
[11] = second compound 0.316 µM, first compound 3.16 µM
[12] = second compound 0.316 µM, first compound 10 µM
[13] = second compound 1 µM, first compound 0.0316 µM
[14] = second compound 1 µM, first compound 0.1 µM
[15] = second compound 1 µM, first compound 0.316 µM
[16] = second compound 1 µM, first compound 1 µM
[17] = second compound 1 µM, first compound 3.16 µM
[18] = second compound 1 µM, first compound 10 µM
[19] = second compound 3.16 µM, first compound 0.0316 µM
[20] = second compound 3.16 µM, first compound 0.1 µM
[21] = second compound 3.16 µM, first compound 0.316 µM
[22] = second compound 3.16 µM, first compound 1 µM
[23] = second compound 3.16 µM, first compound 3.16 µM
[24] = second compound 3.16 µM, first compound 10 µM
[25] = second compound 10 µM, first compound 0.0316 µM
[26] = second compound 10 µM, first compound 0.1 µM
[27] = second compound 10 µM, first compound 0.316 µM
[28] = second compound 10 µM, first compound 1 µM
[29] = second compound 10 µM, first compound 3.16 µM
[30] = second compound 10 µM, first compound 10 µM
[31] = second compound 0.1 µM, first compound 0.000316 µM
[32] = second compound 0.1 µM, first compound 0.001 µM
[33] = second compound 0.1 µM, first compound 0.00316 µM
[34] = second compound 0.1 µM, first compound 0.01 µM
[35] = second compound 0.316 µM, first compound 0.000316 µM
[36] = second compound 0.316 µM, first compound 0.001 µM
[37] = second compound 0.316 µM, first compound 0.00316 µM
[38] = second compound 0.316 µM, first compound 0.01 µM
[39] = second compound 1 µM, first compound 0.000316 µM
[40] = second compound 1 µM, first compound 0.001 µM
[41] = second compound 1 µM, first compound 0.00316 µM
[42] = second compound 1 µM, first compound 0.01 µM
[43] = second compound 3.16 µM, first compound 0.000316 µM
[44] = second compound 3.16 µM, first compound 0.001 µM
[45] = second compound 3.16 µM, first compound 0.00316 µM
[46] = second compound 3.16 µM, first compound 0.01 µM
[47] = second compound 10 µM, first compound 0.000316 µM
[48] = second compound 10 µM, first compound 0.001 µM
[49] = second compound 10 µM, first compound 0.00316 µM
[50] = second compound 10 µM, first compound 0.01 µM
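Wherever IC50 is given: spheroids exposed to agents for seven days before reading.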
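Wherever viability, T/C is given: spheroids exposed to agents for seven days before reading; 100% = DMSO vehicle wells so lower means fewer viable cells.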

| SMILES | IC50 (second compound 0.1 µM) [nM] | IC50 (second compound 0.316 µM) [nM] | IC50 (second compound 1 µM) [nM] | IC50 (second compound 3.16 µM) [nM] | IC50 (second compound 10 µM) [nM] | viability, T/C [1] [%] | viability, T/C [2] [%] | viability, T/C [7] [%] | viability, T/C [8] [%] | viability, T/C [13] [%] | viability, T/C [14] [%] | viability, T/C [19] [%] | viability, T/C [20] [%] | viability, T/C [25] [%] | viability, T/C [26] [%] | viability, T/C [31] [%] | viability, T/C [32] [%] | viability, T/C [33] [%] | viability, T/C [34] [%] | viability, T/C [35] [%] | further results |
| --- | --- | --- | --- | --- | --- | --- | --- | --- | --- | --- | --- | --- | --- | --- | --- | --- | --- | --- | --- | --- | --- |
| COc1cc(Nc2ncc3c(n2)-c2ccc(Cl)cc2C(c2c(F)cccc2OC)=NC3)ccc1C(=O)O + CNCc1ccccc1-c1csc(C(C)Nc2nc(C)nc3cc(OC)c(OC)cc23)c1 | < 31.6 | < 31.6 | < 31.6 | < 31.6 | < 31.6 | 16.1 | 10.8 | 15.6 | 11.1 | 14.7 | 10.7 | 0.1 | 0.06 | 0.14 | 0.13 | – | – | – | – | – | viability, T/C [3]: 9.69%; viability, T/C [4]: 10.2%; viability, T/C [5]: 12%; viability, T/C [6]: 12.3%; viability, T/C [9]: 10.5%; viability, T/C [10]: 10.8%; viability, T/C [11]: 12.9%; viability, T/C [12]: 12.8%; viability, T/C [15]: 8.64%; viability, T/C [16]: 8.26%; viability, T/C [17]: 11.9%; viability, T/C [18]: 11.6%; viability, T/C [21]: 0.05%; viability, T/C [22]: 0.05%; viability, T/C [23]: 0.06%; viability, T/C [24]: 0.15%; viability, T/C [27]: 0.14%; viability, T/C [28]: 0.13%; viability, T/C [29]: 0.63%; viability, T/C [30]: 0.22% |
| Cn1ncnc1[C@H]1c2n[nH]c(=O)c3cc(F)cc(c23)N[C@@H]1c1ccc(F)cc1 + COc1cc2nc(C)nc(NC(C)c3cc(N)cc(C(F)(F)F)c3)c2cc1OC1CCOC1 | 12.5 | 9.03 | 4.31 | 7.37 | 1.4 | 33.3 | 20.1 | 32.2 | 20.5 | 28.7 | 20.1 | 26.5 | 20.4 | 27.8 | 18.5 | 79.3 | 82.3 | 68.9 | 54.5 | 82.1 | viability, T/C [36]: 63.5%; viability, T/C [37]: 68.6%; viability, T/C [38]: 48.1%; viability, T/C [39]: 76.6%; viability, T/C [40]: 69.7%; viability, T/C [41]: 50%; viability, T/C [42]: 42.1%; viability, T/C [43]: 62.9%; viability, T/C [44]: 68.8%; viability, T/C [45]: 58.1%; viability, T/C [46]: 47.3%; viability, T/C [47]: 50%; viability, T/C [48]: 51.6%; viability, T/C [49]: 48.5%; viability, T/C [50]: 42% |
| CN(C)C/C=C/C(=O)Nc1cc2c(Nc3ccc(F)c(Cl)c3)ncnc2cc1O[C@H]1CCOC1 + COc1cc2nc(C)nc(NC(C)c3cc(N)cc(C(F)(F)F)c3)c2cc1OC1CCOC1 | > 100 | > 100 | > 100 | 16.2 | > 100 | 69.5 | 68.1 | 59.9 | 62.4 | 83.8 | 84.8 | 49.9 | 49.5 | 53.7 | 54.6 | 88.6 | 84 | 75.2 | 76.7 | 72.5 | viability, T/C [36]: 76%; viability, T/C [37]: 64%; viability, T/C [38]: 67.3%; viability, T/C [39]: 90.8%; viability, T/C [40]: 85.1%; viability, T/C [41]: 88.1%; viability, T/C [42]: 86%; viability, T/C [43]: 60.9%; viability, T/C [44]: 57.1%; viability, T/C [45]: 52.7%; viability, T/C [46]: 48.2%; viability, T/C [47]: 58.5%; viability, T/C [48]: 56.7%; viability, T/C [49]: 49.8%; viability, T/C [50]: 49.3% |
| CN(C)C/C=C/C(=O)Nc1cc2c(Nc3ccc(F)c(Cl)c3)ncnc2cc1O[C@H]1CCOC1 + CC1OCC2(CCN(c3cnc(Sc4ccnc(N)c4Cl)c(N)n3)CC2)C1N | > 100 | > 100 | > 100 | < 0.316 | 0.428 | 69.3 | 56.4 | 51.2 | 53 | 99 | 91.7 | 32.7 | 31.9 | 37.3 | 33.5 | 75.6 | 82 | 71 | 71 | 62.8 | viability, T/C [36]: 60.4%; viability, T/C [37]: 53.5%; viability, T/C [38]: 53.1%; viability, T/C [39]: 106%; viability, T/C [40]: 109%; viability, T/C [41]: 103%; viability, T/C [42]: 104%; viability, T/C [43]: 44%; viability, T/C [44]: 42.1%; viability, T/C [45]: 37%; viability, T/C [46]: 40.7%; outcome [47]: inactive; outcome [48]: inactive; viability, T/C [49]: 44%; outcome [50]: inactive |
| CC(=O)Nc1cccc(-n2c(=O)n(C3CC3)c(=O)c3c(Nc4ccc(I)cc4F)n(C)c(=O)c(C)c32)c1 + C=CC(=O)N1CCN(c2nc(=O)n(-c3c(C)ccnc3C(C)C)c3nc(-c4c(O)cccc4F)c(F)cc23)C(C)C1 | 6.05 | 3.57 | 4.92 | 2.38 | < 0.1 | 16.2 | – | 14.5 | – | 13.3 | – | 15.3 | – | 13.4 | – | 60.1 | 61.5 | 57.9 | 45.2 | 67.2 | viability, T/C (second compound 0.1 µM, first compound 0.0001 µM): 70.5%; viability, T/C (second compound 0.316 µM, first compound 0.0001 µM): 65.7%; viability, T/C [36]: 57.6%; viability, T/C [37]: 51.5%; viability, T/C [38]: 37.7%; viability, T/C (second compound 1 µM, first compound 0.0001 µM): 60%; viability, T/C [39]: 63%; viability, T/C [40]: 56.3%; viability, T/C [41]: 53.1%; viability, T/C [42]: 44.4%; viability, T/C (second compound 3.16 µM, first compound 0.0001 µM): 60.7%; viability, T/C [43]: 57.2%; viability, T/C [44]: 54.5%; viability, T/C [45]: 49.4%; viability, T/C [46]: 31.9%; viability, T/C (second compound 10 µM, first compound 0.0001 µM): 46.5%; viability, T/C [47]: 47.7%; viability, T/C [48]: 45.1%; viability, T/C [49]: 41.2%; viability, T/C [50]: 24.1% |
| COc1cc(Nc2ncc3c(n2)-c2ccc(Cl)cc2C(c2c(F)cccc2OC)=NC3)ccc1C(=O)O + C=CC(=O)N1CCN(c2nc(=O)n(-c3c(C)ccnc3C(C)C)c3nc(-c4c(O)cccc4F)c(F)cc23)C(C)C1 | < 31.6 | < 31.6 | < 31.6 | < 31.6 | < 31.6 | 12.1 | 9.76 | 10.1 | 11.5 | 10.6 | 12 | 9.6 | 11.2 | 9.5 | 13.1 | – | – | – | – | – | viability, T/C [3]: 10.6%; viability, T/C [4]: 12.4%; viability, T/C [5]: 12.6%; viability, T/C [6]: 9.6%; viability, T/C [9]: 11.1%; viability, T/C [10]: 9.91%; viability, T/C [11]: 13.6%; viability, T/C [12]: 10.8%; viability, T/C [15]: 10.6%; viability, T/C [16]: 10.7%; viability, T/C [17]: 12.5%; viability, T/C [18]: 11.3%; viability, T/C [21]: 10.2%; viability, T/C [22]: 11.9%; viability, T/C [23]: 12.6%; viability, T/C [24]: 10.9%; viability, T/C [27]: 12.6%; viability, T/C [28]: 12.4%; viability, T/C [29]: 15.2%; viability, T/C [30]: 11.9% |
